Test results as given in PubChem BioAssay (NCI).
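In this assay, cells in 96-well plates receive the compound at five concentrations for 48 hours. Endpoints are linearly interpolated between the surrounding concentrations. The concentration for full growth arrest is given as TGI.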

What was measured:
Assay in all cases: DTP human tumour cell line panel, 48 h
MALME-3M melanoma = tested on: MALME-3M melanoma
A498 renal = tested on: A498 renal
RPMI-8226 leukemia = tested on: RPMI-8226 leukemia
SNB-19 CNS = tested on: SNB-19 CNS
T-47D breast = tested on: T-47D breast
SF-539 CNS = tested on: SF-539 CNS
SR leukemia = tested on: SR leukemia
NCI-H522 lung = tested on: NCI-H522 lung
LOX IMVI melanoma = tested on: LOX IMVI melanoma
SK-MEL-28 melanoma = tested on: SK-MEL-28 melanoma
SNB-75 CNS = tested on: SNB-75 CNS
BT-549 breast = tested on: BT-549 breast
IGROV1 ovarian = tested on: IGROV1 ovarian
OVCAR-5 ovarian = tested on: OVCAR-5 ovarian
786-0 renal = tested on: 786-0 renal
TK-10 renal = tested on: TK-10 renal
HT29 colon = tested on: HT29 colon
SK-MEL-2 melanoma = tested on: SK-MEL-2 melanoma
UACC-257 melanoma = tested on: UACC-257 melanoma
M14 melanoma = tested on: M14 melanoma
KM12 colon = tested on: KM12 colon
NCI-H23 lung = tested on: NCI-H23 lung
COLO 205 colon = tested on: COLO 205 colon
HL-60(TB) leukemia = tested on: HL-60(TB) leukemia
RXF 393 renal = tested on: RXF 393 renal
NCI-H226 lung = tested on: NCI-H226 lung
PC-3 prostate = tested on: PC-3 prostate
SF-295 CNS = tested on: SF-295 CNS
OVCAR-3 ovarian = tested on: OVCAR-3 ovarian
SN12C renal = tested on: SN12C renal
HOP-62 NSCLC = tested on: HOP-62 NSCLC
SF-268 CNS = tested on: SF-268 CNS
UO-31 renal = tested on: UO-31 renal
HS 578T breast = tested on: HS 578T breast
DU-145 prostate = tested on: DU-145 prostate
OVCAR-8 ovarian = tested on: OVCAR-8 ovarian
SK-MEL-5 melanoma = tested on: SK-MEL-5 melanoma
U251 CNS = tested on: U251 CNS
HOP-92 NSCLC = tested on: HOP-92 NSCLC
NCI/ADR-RES ovarian = tested on: NCI/ADR-RES ovarian
EKVX NSCLC = tested on: EKVX NSCLC
NCI-H460 lung = tested on: NCI-H460 lung
SW-620 colon = tested on: SW-620 colon
HCC-2998 colon = tested on: HCC-2998 colon
MDA-MB-435 = tested on: MDA-MB-435
HCT-116 colon = tested on: HCT-116 colon
MDA-MB-231 breast = tested on: MDA-MB-231 breast
SK-OV-3 ovarian = tested on: SK-OV-3 ovarian
MOLT-4 leukemia = tested on: MOLT-4 leukemia
CAKI-1 renal = tested on: CAKI-1 renal
MDA-N = tested on: MDA-N
MCF7 breast = tested on: MCF7 breast
A549 NSCLC = tested on: A549 NSCLC
UACC-62 melanoma = tested on: UACC-62 melanoma
CCRF-CEM leukemia = tested on: CCRF-CEM leukemia
HCT-15 colon = tested on: HCT-15 colon
ACHN renal = tested on: ACHN renal
K-562 leukemia = tested on: K-562 leukemia

## CN(C)CCNc1ccc2c(=O)n(CCN(C)C)c(=O)n3c4ccccc4c(=O)c1c23
MALME-3M melanoma
  TGI: 1.93 µM
A498 renal
  TGI: 0.554 µM
RPMI-8226 leukemia
  TGI: 0.0616 µM
SNB-19 CNS
  TGI: 7.12 µM
T-47D breast
  TGI: 3.89 µM
SF-539 CNS
  TGI: 0.272 µM
SR leukemia
  TGI: 0.0298 µM
NCI-H522 lung
  TGI: 0.58 µM
LOX IMVI melanoma
  TGI: 1.48 µM
SK-MEL-28 melanoma
  TGI: 5.26 µM
SNB-75 CNS
  TGI: 0.403 µM
BT-549 breast
  TGI: 5.7 µM
IGROV1 ovarian
  TGI: 0.982 µM
OVCAR-5 ovarian
  TGI: 5.03 µM
786-0 renal
  TGI: 1.35 µM
TK-10 renal
  TGI: 4.31 µM
HT29 colon
  TGI: 1.68 µM
SK-MEL-2 melanoma
  TGI: 1.7 µM
UACC-257 melanoma
  TGI: 1.62 µM
M14 melanoma
  TGI: 1.81 µM
KM12 colon
  TGI: 1.14 µM
NCI-H23 lung
  TGI: 0.565 µM
COLO 205 colon
  TGI: 0.671 µM
HL-60(TB) leukemia
  TGI: 0.286 µM
RXF 393 renal
  TGI: 0.688 µM
NCI-H226 lung
  TGI: 1.58 µM
PC-3 prostate
  TGI: 7.09 µM
SF-295 CNS
  TGI: 0.516 µM
OVCAR-3 ovarian
  TGI: 2.81 µM
SN12C renal
  TGI: 0.294 µM
HOP-62 NSCLC
  TGI: 0.265 µM
SF-268 CNS
  TGI: 0.482 µM
UO-31 renal
  TGI: 1.8 µM
HS 578T breast
  TGI: 3.65 µM
DU-145 prostate
  TGI: 0.179 µM
OVCAR-8 ovarian
  TGI: 8.78 µM
SK-MEL-5 melanoma
  TGI: 0.163 µM
U251 CNS
  TGI: 3.63 µM
HOP-92 NSCLC
  TGI: 0.462 µM
NCI/ADR-RES ovarian
  TGI: 5.5 µM
EKVX NSCLC
  TGI: 2.56 µM
NCI-H460 lung
  TGI: 0.364 µM
SW-620 colon
  TGI: 3.98 µM
HCC-2998 colon
  TGI: 0.473 µM
MDA-MB-435
  TGI: 0.537 µM
HCT-116 colon
  TGI: 0.615 µM
MDA-MB-231 breast
  TGI: 0.682 µM
SK-OV-3 ovarian
  TGI: 6.2 µM
MOLT-4 leukemia
  TGI: < 0.0201 µM
CAKI-1 renal
  TGI: 2.05 µM
MDA-N
  TGI: 0.71 µM
MCF7 breast
  TGI: 1.78 µM
A549 NSCLC
  TGI: > 40.3 µM

## COC1CC(C)(N)C(O)C(C)O1 (stereo not given)
MALME-3M melanoma
  TGI: > 100 µM
A498 renal
  TGI: > 100 µM
RPMI-8226 leukemia
  TGI: > 100 µM
SNB-19 CNS
  TGI: > 100 µM
T-47D breast
  TGI: > 100 µM
SF-539 CNS
  TGI: > 100 µM
SR leukemia
  TGI: > 100 µM
NCI-H522 lung
  TGI: > 100 µM
LOX IMVI melanoma
  TGI: > 100 µM
SK-MEL-28 melanoma
  TGI: > 100 µM
SNB-75 CNS
  TGI: > 100 µM
BT-549 breast
  TGI: > 100 µM
IGROV1 ovarian
  TGI: > 100 µM
786-0 renal
  TGI: > 100 µM
UACC-62 melanoma
  TGI: > 100 µM
TK-10 renal
  TGI: > 100 µM
HT29 colon
  TGI: > 100 µM
SK-MEL-2 melanoma
  TGI: > 100 µM
UACC-257 melanoma
  TGI: > 100 µM
CCRF-CEM leukemia
  TGI: > 100 µM
M14 melanoma
  TGI: > 100 µM
KM12 colon
  TGI: > 100 µM
HCT-15 colon
  TGI: > 100 µM
NCI-H23 lung
  TGI: > 100 µM
COLO 205 colon
  TGI: > 100 µM
ACHN renal
  TGI: > 100 µM
HL-60(TB) leukemia
  TGI: > 100 µM
RXF 393 renal
  TGI: > 100 µM
NCI-H226 lung
  TGI: > 100 µM
PC-3 prostate
  TGI: > 100 µM
SF-295 CNS
  TGI: > 100 µM
OVCAR-3 ovarian
  TGI: > 100 µM
SN12C renal
  TGI: > 100 µM
HOP-62 NSCLC
  TGI: > 100 µM
K-562 leukemia
  TGI: > 100 µM
SF-268 CNS
  TGI: > 100 µM
UO-31 renal
  TGI: > 100 µM
HS 578T breast
  TGI: > 100 µM
DU-145 prostate
  TGI: > 100 µM
OVCAR-8 ovarian
  TGI: > 100 µM
SK-MEL-5 melanoma
  TGI: > 100 µM
U251 CNS
  TGI: > 100 µM
HOP-92 NSCLC
  TGI: > 100 µM
NCI/ADR-RES ovarian
  TGI: > 100 µM
EKVX NSCLC
  TGI: > 100 µM
NCI-H460 lung
  TGI: > 100 µM
SW-620 colon
  TGI: > 100 µM
HCC-2998 colon
  TGI: > 100 µM
MDA-MB-435
  TGI: > 100 µM
HCT-116 colon
  TGI: > 100 µM
MDA-MB-231 breast
  TGI: > 100 µM
SK-OV-3 ovarian
  TGI: > 100 µM
MOLT-4 leukemia
  TGI: > 100 µM
CAKI-1 renal
  TGI: > 100 µM
MDA-N
  TGI: > 100 µM
MCF7 breast
  TGI: > 100 µM
A549 NSCLC
  TGI: > 100 µM
